Measured values as given in ChEMBL document CHEMBL2417439, “Selected furanochalcones as inhibitors of monoamine oxidase” (Bioorg Med Chem Lett, 2013).

What was measured:
Homo sapiens = organism: Homo sapiens; assay: Selectivity index, ratio of IC50 for human recombinant MAO-A to IC50 for human recombinant MAO-B
[1] = molecular target: T1, Amine oxidase [flavin-containing] A (Homo sapiens, UniProt P21397); assay: Inhibition of human recombinant MAO-A expressed in insect cell microsomes using kynuramine as substrate assessed as formation of 4-hydroxyquinoline by fluorometric method; parameters: species or system Microsome
T1 sequence (P21397 whole entry): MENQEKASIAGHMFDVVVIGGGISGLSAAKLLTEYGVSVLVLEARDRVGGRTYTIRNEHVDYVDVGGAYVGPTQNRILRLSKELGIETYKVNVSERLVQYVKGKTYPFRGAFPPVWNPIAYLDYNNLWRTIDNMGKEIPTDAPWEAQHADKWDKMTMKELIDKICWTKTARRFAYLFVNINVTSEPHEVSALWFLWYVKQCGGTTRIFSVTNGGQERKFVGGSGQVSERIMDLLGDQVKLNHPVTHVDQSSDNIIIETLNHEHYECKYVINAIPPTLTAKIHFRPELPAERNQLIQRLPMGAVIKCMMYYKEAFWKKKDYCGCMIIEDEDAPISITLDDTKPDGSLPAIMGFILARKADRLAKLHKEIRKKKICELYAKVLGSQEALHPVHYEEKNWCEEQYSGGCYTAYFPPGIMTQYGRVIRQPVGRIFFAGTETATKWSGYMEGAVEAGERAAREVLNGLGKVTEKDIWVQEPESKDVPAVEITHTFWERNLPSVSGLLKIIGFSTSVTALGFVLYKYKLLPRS

[2] = molecular target: T2, Amine oxidase [flavin-containing] B (Homo sapiens, UniProt P27338); assay: Inhibition of human recombinant MAO-B expressed in insect cell microsomes using kynuramine as substrate assessed as formation of 4-hydroxyquinoline by fluorometric method; parameters: species or system Microsome
T2 sequence (P27338 whole entry): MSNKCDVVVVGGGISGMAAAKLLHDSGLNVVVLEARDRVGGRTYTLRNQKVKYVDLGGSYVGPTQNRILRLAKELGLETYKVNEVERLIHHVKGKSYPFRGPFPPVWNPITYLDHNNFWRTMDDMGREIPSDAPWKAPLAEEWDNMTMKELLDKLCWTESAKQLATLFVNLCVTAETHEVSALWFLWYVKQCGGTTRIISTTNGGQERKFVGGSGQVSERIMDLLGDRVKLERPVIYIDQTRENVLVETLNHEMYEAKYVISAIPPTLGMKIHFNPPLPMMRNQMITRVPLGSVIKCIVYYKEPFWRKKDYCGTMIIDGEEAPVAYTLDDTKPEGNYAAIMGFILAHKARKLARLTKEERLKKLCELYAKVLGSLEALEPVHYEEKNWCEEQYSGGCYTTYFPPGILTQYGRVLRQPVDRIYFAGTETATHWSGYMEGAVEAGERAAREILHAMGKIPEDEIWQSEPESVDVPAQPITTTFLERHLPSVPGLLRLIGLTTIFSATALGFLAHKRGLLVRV

[3] = molecular target: T3, Amine oxidase [flavin-containing] B (Rattus norvegicus, UniProt P19643); assay: Displacement of [14C]-beta-PEA from rat MAO-B after 20 mins by liquid scintillation counting analysis
T3 sequence (P19643 whole entry): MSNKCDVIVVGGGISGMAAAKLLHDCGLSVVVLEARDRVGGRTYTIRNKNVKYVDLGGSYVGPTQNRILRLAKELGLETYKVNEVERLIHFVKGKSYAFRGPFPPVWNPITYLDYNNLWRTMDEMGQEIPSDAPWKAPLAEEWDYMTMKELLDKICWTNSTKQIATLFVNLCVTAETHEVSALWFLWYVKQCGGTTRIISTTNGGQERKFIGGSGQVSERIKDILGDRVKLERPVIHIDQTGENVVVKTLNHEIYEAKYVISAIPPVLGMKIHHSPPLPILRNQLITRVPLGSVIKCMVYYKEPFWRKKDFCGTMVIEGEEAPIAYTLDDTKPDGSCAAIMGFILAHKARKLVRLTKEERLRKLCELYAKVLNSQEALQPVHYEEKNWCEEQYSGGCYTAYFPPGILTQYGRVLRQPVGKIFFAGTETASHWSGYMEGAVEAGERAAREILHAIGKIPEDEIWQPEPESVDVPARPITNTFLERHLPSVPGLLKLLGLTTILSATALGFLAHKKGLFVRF

[4] = molecular target: T4, Amine oxidase [flavin-containing] A (Rattus norvegicus, UniProt P21396); assay: Displacement of [14C]-5HT from rat MAO-A after 20 mins by liquid scintillation counting analysis
T4 sequence (P21396 whole entry): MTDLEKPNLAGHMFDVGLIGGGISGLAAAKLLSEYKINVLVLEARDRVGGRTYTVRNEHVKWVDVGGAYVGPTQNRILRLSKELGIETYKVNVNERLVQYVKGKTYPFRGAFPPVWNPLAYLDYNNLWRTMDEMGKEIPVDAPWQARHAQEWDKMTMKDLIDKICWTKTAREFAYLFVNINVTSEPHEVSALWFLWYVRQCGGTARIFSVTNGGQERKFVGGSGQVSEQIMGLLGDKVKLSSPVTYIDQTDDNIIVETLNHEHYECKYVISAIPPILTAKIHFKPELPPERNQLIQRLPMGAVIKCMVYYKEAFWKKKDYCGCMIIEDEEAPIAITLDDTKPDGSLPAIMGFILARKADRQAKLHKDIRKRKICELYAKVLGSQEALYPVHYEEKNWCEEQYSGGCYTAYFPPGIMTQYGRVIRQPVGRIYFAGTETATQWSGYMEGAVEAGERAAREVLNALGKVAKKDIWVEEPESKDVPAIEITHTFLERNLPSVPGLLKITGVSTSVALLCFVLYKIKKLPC

[5] = molecular target: T1, Amine oxidase [flavin-containing] A; assay: Inhibition of human recombinant MAO-A expressed in insect cell microsomes using kynuramine as substrate assessed as formation of 4-hydroxyquinoline at 100 uM by fluorometric method; parameters: species or system Microsome

Cc1ccc(C(=O)/C=C/c2ccc(Br)cc2)o1
Ratio IC50 (Homo sapiens): 121 | IC50 [1]: 85.7 µM | IC50 [2]: 0.707 µM

Cc1ccc(C(=O)/C=C/c2ccc(F)cc2)o1
Ratio IC50 (Homo sapiens): 20 | IC50 [1]: 18.6 µM | IC50 [2]: 0.924 µM

O=C(/C=C/c1ccc(O)cc1)c1ccc(O)cc1O [ISOLIQUIRITIGENIN]
IC50 [3]: 47.2 µM | IC50 [4]: 13.9 µM

COc1cccc(/C=C/C(=O)c2ccc(C)o2)c1
inhibition (INH) [5]: Not Active
